# According to patent publication US11186575B2, “Treatment of helicobacter pylori infections” (Albert Einstein College of Medicine, Inc., priority 2012, dated 2021):
# Like-named read-outs stand apart in the source and are kept apart here.
# What was measured:
# H. pylori MTAN [1] = biological target: T1, H. pylori MTAN (Helicobacter pylori, UniProt Q9ZMY2); assay: Ki determination: inhibition of recombinant HpMTAN, xanthine oxidase coupled assay, 5′-methylthioadenosine as substrate; assay type: biochemical
# T1 construct: His6 (N); made in house; host or cells: E. coli BL21 (DE3)
# T1 sequence (Q9ZMY2 1-230): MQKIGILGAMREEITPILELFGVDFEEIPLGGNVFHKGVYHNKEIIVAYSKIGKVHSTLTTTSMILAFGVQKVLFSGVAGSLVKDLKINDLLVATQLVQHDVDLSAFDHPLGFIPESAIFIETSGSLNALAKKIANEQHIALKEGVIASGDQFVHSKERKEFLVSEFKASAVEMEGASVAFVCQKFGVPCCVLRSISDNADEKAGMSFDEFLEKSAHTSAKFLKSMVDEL
# Procedure: The purification procedure of HpMTAN was described previously^10. Briefly, BL21 (DE3) cells harboring a plasmid encoding HpMTAN with an N-terminal His6-tag were grown to an optical density of 0.7 measured at 595 nm and IPTG was introduced to a final concentration of 0.5 mM. After another 15 h at 22° C., cells were collected by centrifugation. The pellet was suspended and later disrupted by pressure cell and sonication. The soluble portion was applied to a Ni-NTA column and HpMTAN was eluted with an imidazole concentration gradient of 200 to 500 mM. The protein was desalted using a Superdex G15 gel-filtration column then equilibrated and concentrated in 10 mM Hepes, 30 mM KCl, pH 7.6. The purity was confirmed by SDS-PAGE.
# Kinetics of HpMTAN were determined using a direct assay involving absorbance decrease at 274 nm continuously as a consequence of formation of free adenine from 5′-methylthioadenosine. The Ki and Ki* values of BuT-DADMe-ImmA (30) were determined using coupled assays, in which xanthine oxidase was used as the coupling enzyme and absorbance increase was followed at 292 nm as the product adenine is converted to 2,8-dihydroxyadenine. Both assays have been previously described
# BuT-DADMe-ImmA (30) was previously characterized as a transition state analogue inhibitor of EcMTAN (FIG. 1C)^8. Here, inhibition assays were performed using BuT-DADMe-ImmA against recombinant HpMTAN with 5′-methylthioadenosine as substrate. Purified HpMTAN uses both 5′-methylthioadenosine and 6-amino-6-deoxyfutalosine as facile substrates. […] The low Kd value supports the proposal that BuT-DADMe-ImmA is a transition state analogue inhibitor for HpMTAN. […] The nitrogen of the hydroxypyrrolidine moiety has a pKa value of 9, and thus mimics the positive charge of a ribocation at the transition state. The methylene bridge extends the distance between the sugar and the purine base leaving group, as this distance is near 3 Å at the transition state. The 9-deazaadenine alters conjugation in the purine ring, causing an elevated pKa and protonation of N7, resembling the N7-protonated adenine leaving group at the transition state.
# H. pylori [2] = assay: H. pylori growth on tryptic soy agar with 5% horse blood (MIC); assay type: cell-based, Helicobacter pylori; conditions: Helicobacter pylori, read-out: Inhibition of H. pylori growth MIC90
# Procedure: (§1) H. pylori were grown for 72 hours under microaerophilic condition (5% O2, 10% CO2 and 85% N2) at 37° C. on tryptic soy agar with 5% horse blood. To determine the MIC values, the test substance was added to the gel solution right before pouring. To compare the zones of inhibition, specific antibiotics were added to the center of disc after spreading H. pylori, and then H. pylori was allowed to grow for 72 hours under microaerophilic condition at 37° C.
# The effects of BuT-DADMe-ImmA (30) were tested on H. pylori growing on 5% horse blood agar. At 6 ng/ml, slight growth was detected and at 8 ng/ml, no growth was detected, therefore the MIC90 value for inhibition of H. pylori growth is <8 ng/ml (FIG. 3A).
# H. pylori MTAN [3] = biological target: T1, H. pylori MTAN; conditions: Table 3, cited from earlier work
# H. pylori [4] = assay: Zone of inhibition (disc) on H. pylori; assay type: cell-based, Helicobacter pylori; conditions: equivalent amounts (10 ng or 20 ng per disc)
# Procedure: FIG. 3A-3B: The effects of BuT-DADMe-ImmA (30) on H. pylori growth. A. The effects of increasing the concentration of BuT-DADMe-ImmA (ng/ml) on growth on blood agar. B. The inhibitory effects of BuT-DADMe-ImmA are compared with amoxicillin, metronidazole and tetracyclin in zone of inhibition studies. Drug concentrations were: 0 (top disc), 10 ng (middle disc) or 20 ng (bottom disc). Each specified antibiotic was applied to the disc in the same manner.
# as §1
# Commonly used antibiotics in H. pylori infections include amoxicillin, metronidazole and tetracycline. The anti-H. pylori effects of BuT-DADMe-ImmA (30) were compared to those antibiotics in common use. […] Thus, BuT-DADMe-ImmA is more efficient at inhibition of H. pylori growth than commonly used antibiotics.
# [5] = Table 3, DADMe-Immucillin-A series, initial inhibition constant, read-out: Inhibition of H. pylori MTAN Ki
# [6] = Table 3, equilibrium dissociation constant after slow onset, read-out: Inhibition of H. pylori MTAN Ki*
# [7] = Table 3, agar plate, 72 hours, microaerophilic
# [8] = Table 4, Immucillin-A series, read-out: Inhibition of H. pylori MTAN Ki
# [9] = 72 h, Table 4, Immucillin-A series
# [10] = Table 4, Immucillin-A series, read-out: Inhibition of H. pylori MTAN Ki*
SMILES,Ki (H. pylori MTAN [1]; [5]),Ki (H. pylori MTAN [1]; [6]),MIC90 (H. pylori [2]; [7]),also measured
"Nc1ncnc2c(CN3CC(O)[C@@H](CSCCO)C3)c[nH]c12 (stereo partly drawn) [Compound 10, (4S)-1-((4-amino-5H-pyrrolo[3,2-d]pyrimidin-7-yl)methyl)-4-(((2-hydroxyethyl)thio)methyl)pyrrolidin-3-ol]",430 ± 120 pM,40 ± 10 pM,,
"Nc1ncnc2c(CN3CC(O)[C@@H](CSCCCO)C3)c[nH]c12 (stereo partly drawn) [Compound 11, (4S)-1-((4-Amino-5H-pyrrolo[3,2-d]pyrimidin-7-yl)methyl)-4-(((3-hydroxypropyl)thio)methyl)pyrrolidin-3-ol]",890 ± 130 pM,100 ± 10 pM,0.04 µg/mL,
"Nc1ncnc2c(CN3CC(O)[C@@H](CSCCCCO)C3)c[nH]c12 (stereo partly drawn) [Compound 12, (4S)-1-((4-Amino-5H-pyrrolo[3,2-d]pyrimidin-7-yl)methyl)-4-(((4-hydroxybutyl)thio)methyl)pyrrolidin-3-ol]",340 ± 70 pM,110 ± 40 pM,0.02 µg/mL,
"Nc1ncnc2c(CN3CC(O)[C@@H](CSCCOCCO)C3)c[nH]c12 (stereo partly drawn) [Compound 13, (4S)-1-((4-Amino-5H-pyrrolo[3,2-d]pyrimidin-7-yl)methyl)-4-(((2-(2-hydroxyethoxyl)ethyl)thio)methyl)pyrrolidin-3-ol]",960 ± 160 pM,15 ± 4 pM,0.035 to 0.07 µg/mL,
"C#CCCCCSC[C@H]1CN(Cc2c[nH]c3c(N)ncnc23)C[C@@H]1O [Compound 14, (3R,4S)-1-({4-Amino-5H-pyrrolo[3,2-d]pyrimidin-7-yl}methyl)-4-[(hex-5-yn-1-ylthio)methyl]pyrrolidin-3-ol]",500 ± 200 pM,90 ± 20 pM,0.004 to 0.008 µg/mL,
"Nc1ncnc2c(CN3C[C@H](CCSCCO)[C@@H](O)C3)c[nH]c12 [Compound 16, (3R,4S)-1-({4-Amino-5H-pyrrolo[3,2-d]pyrimidin-7-yl}methyl)-4-{2-[(2-hydroxyethyl)thio]ethyl}pyrrolidin-3-ol]",260 ± 30 pM,50 ± 10 pM,0.08 µg/mL,
"Nc1ncnc2c(CN3C[C@H](CCSCCOCCO)[C@@H](O)C3)c[nH]c12 [Compound 17, (3R,4S)-1-({4-Amino-5H-pyrrolo[3,2-d]pyrimidin-7-yl}methyl)-4-(2-{[2-(2-hydroxyethoxy)ethyl]thio}ethyl)pyrrolidin-3-ol]",280 ± 30 pM,50 ± 10 pM,0.08 µg/mL,
"CCCCCCSC[C@H]1CN(Cc2c[nH]c3c(N)ncnc23)C[C@@H]1O [Compound 18, (3R,4S)-1-({4-Amino-5H-pyrrolo[3,2-d]pyrimidin-7-yl}methyl)-4-[(hexylthio)methyl]pyrrolidin-3-ol]",210 ± 30 pM,5 ± 2 pM,0.004 to 0.008 µg/mL,
"CCCCCCSCC[C@H]1CN(Cc2c[nH]c3c(N)ncnc23)C[C@@H]1O [Compound 19, (3R,4S)-1-({4-Amino-5H-pyrrolo[3,2-d]pyrimidin-7-yl}methyl)-4-[2-(hexylthio)ethyl]pyrrolidin-3-ol]",700 ± 100 pM,140 ± 10 pM,0.04 µg/mL,
"Nc1ncnc2c(CN3C[C@H](CSc4ccccn4)[C@@H](O)C3)c[nH]c12 [Compound 24, (3R,4S)-1-({4-Amino-5H-pyrrolo[3,2-d]pyrimidin-7-yl}methyl)-4-[(pyridin-2-ylthio)methyl]pyrrolidin-3-ol]",320 ± 700 pM,41 ± 2 pM,0.04 µg/mL,
"Nc1ncnc2c(CN3C[C@H](CSc4cnccn4)[C@@H](O)C3)c[nH]c12 [Compound 27, (3R,4S)-1-({4-Amino-5H-pyrrolo[3,2-d]pyrimidin-7-yl}methyl)-4-[(pyrazin-2-ylthio)methyl]pyrrolidin-3-ol]",43 ± 1 pM,6 pM,0.008 µg/mL,
Nc1ncnc2c(CN3C[C@H](CSc4nccs4)[C@@H](O)C3)c[nH]c12 [Compound 29],240 ± 70 pM,16 ± 5 pM,0.02 µg/mL,
CSCC1CN(Cc2c[nH]c3c(N)ncnc23)CC1O (stereo not shown) [Compound 31],,,0.006 to 0.012 µg/mL,"Ki (H. pylori MTAN [3]; read-out: Inhibition of H. pylori MTAN Ki*, value from Reference 10): 570 pM; Ki (H. pylori MTAN [3]; read-out: Inhibition of H. pylori MTAN Ki, value marked (Reference 10)): 1200 pM"
Nc1ncnc2c(CN3CC(O)C(CSc4ccc(Cl)cc4)C3)c[nH]c12 (stereo not shown) [Compound 41],,,,"Ki (H. pylori MTAN [3]; value from Reference 10, read-out: Inhibition of H. pylori MTAN Ki*): 570 pM; Ki (H. pylori MTAN [3]; value marked (Reference 10), read-out: Inhibition of H. pylori MTAN Ki): 40000 pM"
CCCSC[C@H]1NC(c2c[nH]c3c(N)ncnc23)[C@H](O)[C@@H]1O (stereo partly shown) [Compound 42],,,,Ki (H. pylori MTAN [1]; [8]): 600 ± 100 pM; MIC90 (H. pylori [2]; [9]): 0.016 µg/mL
CCCCSC[C@H]1NC(c2c[nH]c3c(N)ncnc23)[C@H](O)[C@@H]1O (stereo partly shown) [Compound 43],,,,Ki (H. pylori MTAN [1]; [8]): 510 ± 70 pM; Ki (H. pylori MTAN [1]; [10]): 50 ± 10 pM; MIC90 (H. pylori [2]; [9]): 0.02 µg/mL
CSC[C@H]1NC(c2c[nH]c3c(N)ncnc23)[C@H](O)[C@@H]1O (stereo partly shown) [Compound 44],,,,Ki (H. pylori MTAN [1]; [8]): 980 ± 60 pM; Ki (H. pylori MTAN [1]; [10]): 240 ± 30 pM; MIC90 (H. pylori [2]; [9]): 0.08 µg/mL
"CC1(C)S[C@@H]2[C@H](NC(=O)[C@H](N)c3ccc(O)cc3)C(=O)N2[C@H]1C(=O)O [amoxicillin, reference compound]",,,,"zones of inhibition, comparison of antibiotics (H. pylori [4]): smaller zone of growth inhibition than BuT-DADMe-ImmA"

# Now from value to compound, other results behind:
Ki (H. pylori MTAN [1]; [5]),Ki (H. pylori MTAN [1]; [6]),MIC90 (H. pylori [2]; [7]),SMILES,also measured
780 ± 150 pM,170 ± 10 pM,0.007 to 0.014 µg/mL,Nc1ncnc2c(CN3C[C@H](CSC4CCCC4)[C@@H](O)C3)c[nH]c12 [Compound 32],
58 ± 14 pM,7 ± 2 pM,0.01 µg/mL,CCCC[C@H]1CN(Cc2c[nH]c3c(N)ncnc23)C[C@@H]1O [Compound 33],
120 ± 30 pM,520 ± 40 pM,0.016 µg/mL,CCSC[C@H]1CN(Cc2c[nH]c3c(N)ncnc23)C[C@@H]1O [Compound 34],
53 ± 7 pM,,0.016 µg/mL,CCC[C@H]1CN(Cc2c[nH]c3c(N)ncnc23)C[C@@H]1O [Compound 35],
560 ± 270 pM,45 ± 4 pM,0.018 to 0.035 µg/mL,Nc1ncnc2c(CN3C[C@H](CSCC4CCCCC4)[C@@H](O)C3)c[nH]c12 [Compound 36],
400 ± 50 pM,27 ± 2 pM,0.035 to 0.07 µg/mL,Nc1ncnc2c(CN3C[C@H](CSC4CCCCCC4)[C@@H](O)C3)c[nH]c12 [Compound 37],
203000 ± 28000 pM,310 ± 80 pM,0.04 µg/mL,Nc1ncnc2c(CN3C[C@H](CSCc4ccccc4)[C@@H](O)C3)c[nH]c12 [Compound 38],
270 ± 40 pM,40 ± 10 pM,,Nc1ncnc2c(CN3C[C@H](CSC4CCC4)[C@@H](O)C3)c[nH]c12 [Compound 40],
280 ± 20 pM,,> 0.1 µg/mL,"Nc1ncnc2c(CN3C[C@H](CSc4n[nH]c(-c5ccncc5)n4)[C@@H](O)C3)c[nH]c12 [Compound 56, (3R,4S)-1-({4-Amino-5H-pyrrolo[3,2-d]pyrimidin-7-yl}methyl)-4-({[5-(pyridin-4-yl)-1H-1,2,4-triazol-3-yl]thio}methyl)pyrrolidin-3-ol]",
